Experiment: cn = amount concentration of the nth substance listed, in mol/dm3
Details: 300 K, Ring tensiometer

CN(C)CCC=C1c2ccccc2CCc2ccccc21.Cl + O
Details	surface tension liquid-gas [mN/m]
c1 = 0.001584	69.15
c1 = 0.003138	62.75
c1 = 0.009057	55.25
c1 = 0.01455	50.75
c1 = 0.02441	46.1
c1 = 0.02885	44.55
c1 = 0.03301	43.15
c1 = 0.0406	42.55
c1 = 0.04572	42.5

CN(C)CCCN1c2ccccc2CCc2ccccc21.Cl + O
Details	surface tension liquid-gas [mN/m]
c1 = 0.003658	68.55
c1 = 0.007143	62.15
c1 = 0.01364	54.6
c1 = 0.01957	51.7
c1 = 0.03	47.05
c1 = 0.03889	43.75
c1 = 0.04287	43
c1 = 0.04655	42.3
c1 = 0.05	42.3
c1 = 0.05769	42.3

CN(C)CCCN1c2ccccc2Sc2ccc(Cl)cc21.Cl + O
Details	surface tension liquid-gas [mN/m]
c1 = 0.001381	65.7
c1 = 0.002344	60.5
c1 = 0.003289	57.15
c1 = 0.004762	53.4
c1 = 0.006542	50.5
c1 = 0.009091	47.15
c1 = 0.01228	45.2
c1 = 0.01525	44.15
c1 = 0.01666	44
c1 = 0.01803	44.05
c1 = 0.01936	44

CC(CN1c2ccccc2Sc2ccccc21)N(C)C.Cl (stereo not given) [promethazine hydrochloride] + O
Details	surface tension liquid-gas [mN/m]
c1 = 0.002941	71.3
c1 = 0.005769	64.15
c1 = 0.01111	56.45
c1 = 0.01842	50.35
c1 = 0.02903	46.45
c1 = 0.03637	43.4
c1 = 0.04287	42.55
c1 = 0.04865	42.2
c1 = 0.05385	42.1
c1 = 0.05853	42.15

Source: the NIST ThermoML archive (doi:10.1021/je900749a)
